Blank lines part the entries; values can stand above or below the substance they belong to.
Assays:
[1] = tested on: IgE antibody present in the serum of a latex-allergic patient; assay: Latex epitope mapping (1): array of overlapping 15-amino-acid peptides; format: binding, human; conditions: 15-residue peptides; serum of 17 latex-allergic patients; chemiluminescence difference from N2nd value of at least 35,000 = bound
Protocol: Epitope mapping was carried out using a library of overlapping peptides (length: 15 amino acids) corresponding to the amino acid sequences identified as allergy components of latex. Specifically, the library of overlapping peptides was prepared on the basis of the amino acid sequences of SEQ ID NOs: 2 and 4.
The peptides to be synthesized were shifted by 10 amino acids.
For preparation of peptide arrays, the Intavis CelluSpots™ technique was used. Specifically, the peptide arrays were prepared by the following procedure: (1) synthesizing peptides of interest on amino-modified cellulose disks using an automated chemical synthesis apparatus (Intavis MultiPep RS), (2) dissolving the amino-modified cellulose disks to obtain a cellulose-bound peptide solution, and (3) spotting the cellulose-bound peptides onto coated glass slides. The details of each procedure are as described below.
The presence or absence of binding, to each peptide fragment, of an IgE antibody present in the serum of a latex-allergic patient was measured through antigen-antibody reaction using the peptide arrays. The measurement was carried out according to the following procedure.
(1) The peptides were shaken at room temperature for 1 hour in Pierce Protein-Free (PBS) Blocking Buffer (produced by Thermo Fisher Scientific). (2) The peptide arrays were shaken at overnight at 4° C. in 2% serum/Pierce Protein-Free (PBS) Blocking Buffer (produced by Thermo Fisher Scientific). (3) The peptide arrays were washed with PBST (a PBS buffer containing […] Tween 20 nonionic surfactant) for 5 minutes (×3). (4) Anti-human IgE antibody-HRP (1:20,000, Pierce Protein-Free (PBS) Blocking Buffer (produced by Thermo Fisher Scientific)) was added thereto, and the peptide arrays were shaken at room temperature for 1 hour. (5) The peptide arrays were washed with PBST for 5 minutes (×3). (6) Pierce ECL Plus Western Blotting Substrate (produced by Thermo Fisher Scientific) was added thereto, and the peptide arrays were shaken at room temperature for 5 minutes. (7) The chemiluminescence of the peptides treated as described above in (1) to (6) was measured using Amersham Imager 600.
Chemiluminescence intensity in images obtained by the measurement described above in (7) was converted into a numeric value using ImageQuant TL (GE Healthcare). The second highest value among numeric values determined from images obtained from results about the serum of 4 non-latex-allergic subjects was defined as the N2nd value. The N2nd value of each peptide was subtracted from numeric values determined from images obtained from results about the serum of 17 patients (17 latex-allergic patients; respectively given patient Nos. P1-P17). It was determined that a peptide having a value of at least 35,000 as the difference was a peptide bound to an IgE antibody in a patient-specific manner.

[2] = tested on: IgE antibody present in the serum of a patient (latex-allergic); assay: Latex epitope mapping (2) overlapping 10-residue peptides and (3) alanine/glycine scanning on peptide arrays; format: binding, human
Protocol: On the basis of the sequences (SEQ ID NOs: 5, 25, 35, 68 and 83) of the peptides bound to an IgE antibody in serum in a patient-specific manner as described above in (A), a library of overlapping peptide fragments (length: 10 amino acids) was prepared using the sequences of the peptides and sequences in which sequences were added so as to flank each peptide in the amino acid sequences of allergy components comprising the sequences of the peptide. Epitope mapping was carried out using the library.
The peptides to be synthesized were shifted by one amino acid.
The library was prepared by the same procedure as described above in (A), and the presence or absence of binding of an IgE antibody present in the serum of a patient to each peptide fragment was measured by the same technique as described above. Numeric values determined from images obtained as a result of carrying out only the procedures (1) and (4) to (6) described above in the subsection titled (3) Spotting of cellulose-bound peptide solution were used as control values. The control value of each peptide was subtracted from numeric values determined from images obtained from results about the serum of patients, and the obtained value of the difference was compared with values of the peptides serving as the basis of overlapping.
Chemiluminescence intensity in images obtained by measurement was converted into a numeric value in the same manner as in (A). Numeric values determined from images obtained as a result of carrying out only the procedures (1) and (4) to (6) described above in the subsection titled (3) Spotting of cellulose-bound peptide solution (secondary antibody measurement values) were used as control values. The control value of each peptide was subtracted from numeric values determined from images obtained from results about the serum of patients. When values obtained using the sequences (SEQ ID NOs: 5, 25, 35, 68 and 83) serving as the basis of overlapping were defined as 100%, it was determined that: a peptide having a value of the difference that was less than 30% had no binding activity against IgE antibodies; a peptide having a value of the difference that was 30% or more and less than 50% had binding activity, albeit poor, against IgE antibodies; a peptide having a value of the difference that was 50% or more and less than 70% had binding activity, albeit somewhat poor, against IgE antibodies; and a peptide having a value of the difference that was 70% or more had equivalent or good binding activity against IgE antibodies and was thus a peptide had remaining binding activity against IgE antibodies.
From the amino acid sequences identified above in (A), a library of peptide fragments in which amino-terminal amino acids were substituted one by one by alanine (or glycine when the original amino acid was alanine) according to a technique called alanine/glycine scanning (Non Patent Literature 5) was prepared by the same technique as described above. The presence or absence of binding of an IgE antibody present in the serum of a patient to each peptide fragment was measured by the same technique as described above.
Chemiluminescence intensity in images obtained by measurement was converted into a numeric value in the same manner as in (A). Numeric values determined from images obtained from secondary antibody measurement values were used as control values. The control value of each peptide was subtracted from numeric values determined from images obtained from results about the serum of 17 patients (patient Nos. P1-P17). […]

[3] = serum of latex-allergic patient P12
[4] = serum of latex-allergic patient P4
[5] = serum of latex-allergic patient P5

Substance: WSKFYDDKNGYSSSI (epitope) [SEQ ID NO: 83]
patient-specific binding of IgE antibody to peptide [1]: confirmed to bind

Substance: VNVIHKVGKGEITVF (epitope) [SEQ ID NO: 68]
patient-specific binding of IgE antibody to peptide [1]: confirmed to bind

Substance: KPYDKPLNDRYSYKN (epitope) [SEQ ID NO: 25]
patient-specific binding of IgE antibody to peptide [1]: confirmed to bind

Substance: DLKSYKSNSVATDIY (epitope) [SEQ ID NO: 35]
patient-specific binding of IgE antibody to peptide [1]: confirmed to bind

Substance: 19 (QKPY; epitope) [compound 19]
epitope sequence grade for binding to IgE antibody [2, 3]: Key

Substance: 99 (KFYDDKNGYS; epiotope) [compound 99]
epitope sequence grade for binding to IgE antibody [2, 4]: Preferably

Substance: 93 (KFYDDK; epitope) [compound 93]
epitope sequence grade for binding to IgE antibody ([2]; serum of latex-allergic patient P2): Preferably

Substance: QKPY (epitope) [SEQ ID NO: 6]
confirmed as epitope binding to IgE antibodies ([2]; short partial sequences of the 15-residue epitopes): confirmed as epitopes binding to IgE antibodies

Substance: 16 (QKPYDK; epitope) [compound 16]
epitope sequence grade for binding to IgE antibody ([2]; serum of latex-allergic patient P9): Key

Substance: 74 (VIHKVGKGEI; epitope) [compound 74]
epitope sequence grade for binding to IgE antibody [2, 5]: Further preferably

Next, values leading:

patient-specific binding of IgE antibody to peptide [1]: confirmed to bind
Substance: PLTEDNFVIQKPYDK (epitope) [SEQ ID NO: 5]

epitope sequence grade for binding to IgE antibody ([2]; serum of latex-allergic patient P6): Preferably
Substance: 10 (QKPYDK; epitope) [compound 10]

epitope sequence grade for binding to IgE antibody ([2]; serum of latex-allergic patient P8): Key
Substance: 47 (LKSYKSNSV; epitope) [compound 47]

epitope sequence grade for binding to IgE antibody ([2]; serum of latex-allergic patient P17): Key
Substance: 119 (DKNGYSSS; epitope) [compound 119]

epitope sequence grade for binding to IgE antibody [2, 4]: More preferably
Substance: 98 (WSKFYDDK; epitope) [compound 98]

epitope sequence grade for binding to IgE antibody [2, 3]: More preferably
Substance: 17 (EDNFVIQKPY; epitope) [compound 17]

epitope sequence grade for binding to IgE antibody [2, 5]: Preferably
Substance: 107 (YDDKNGYSSS; epitope) [compound 107]
